# According to patent US20230070338A1, “SHP2 Inhibitor Dosing and Methods of Treating Cancer” (Revolution Medicines, Inc., priority 2020, published 2023):
# Like-named read-outs stand apart in the source and are kept apart here.
# Legend:
# [1] = Mouse efficacy pharmacokinetics (QD, steady state); format: in vivo; conditions: for Cmax / AUC(0-t): Mouse efficacy, QD steady state; for AUC(0-t): read-out: AUC0-24
# [2] = tested on: circulating KRAS^G12C tumor DNA (ctDNA); assay: Allelic burden of circulating KRAS G12C tumor DNA in patients; format: in vivo, human
# Excerpt: Allelic burden of circulating KRAS^G12C tumor DNA (ctDNA) has been assessed prior to study and at least once on study in seven patients with tumors harboring KRAS^G12C (FIG. 19). KRAS^G12C DNA was detected in four of seven patients prior to study.
# [3] = tested on: NCI-H358 KRASG12C xenograft model; assay: NCI-H358 KRASG12C xenograft model, anti-tumor activity and exposure; format: in vivo
# [4] = tested on: ERK phosphorylation (pERK); assay: ERK phosphorylation in vitro; format: cell-based
# Excerpt: (§1) SHP2 inhibition with RMC-4630 inhibits ERK phosphorylation (pERK) and proliferation in vitro. Inhibition of pERK may be used as an assay monitoring or determining efficacy of treatment with a SHP2 inhibitor of the disclosure.
# proliferation = assay: Proliferation in vitro; format: cell-based
# Excerpt: as §1
# [5] = tested on: KRASG12C tumor cell lines; assay: Induction of apoptosis in vitro; format: cell-based
# KRAS mutant NSCLC = assay: RMC-4630-01 phase 1 study: clinical anti-tumor activity; format: in vivo, human; conditions: one patient with KRAS^G12V NSCLC, stable disease
compound,measurement,setting,value
Cc1nc(N2CCC3(CC2)CO[C@@H](C)[C@H]3N)c(CO)nc1Sc1ccnc(N)c1Cl [RMC-4630],"exposure required to see anti-tumor effects, particularly tumor stasis",[1]; animal models,6.44 µM·h
same,Cmax,"[1]; in vivo, 20 mg/kg",3400 nM
same,AUC(0-t),"[1]; in vivo, 20 mg/kg",11.7 µM·h
same,Cmax,"[1]; plasma, 10 mg/kg",980 nM
same,AUC(0-t),"[1]; plasma, 10 mg/kg",6.44 µM·h
same,allelic frequency of KRAS^G12C,[2]; one patient with colon cancer who had PD,increased
same,circulating KRAS^G12C allele,[2]; three patients with NSCLC and PR or SD as best response,reduction
same,plasma exposure relative to the EC75,[3]; 10 mg/kg daily,did not exceed the EC75
same,anti-tumor effect,[3]; 10 mg/kg daily (no regressions),tumor growth inhibition
same,anti-tumor effect,[3]; 30 mg/kg daily,Tumor regressions
same,time plasma exposures exceeded the EC75,[3]; 30 mg/kg daily,4 to 6 h
same,effect on ERK phosphorylation (pERK),[4],inhibits
same,effect on proliferation,proliferation,inhibits
same,induction of apoptosis in vitro,[5],both concentration and time-dependent
same,time on treatment,KRAS mutant NSCLC,over 14 months
